Holding throughout (test): relative viability (nuclei count vs DMSO), 5 days (fraction); higher = more cells survive
Compound in assay [1]: O=C(CCCCCCNC(=O)c1cnc(N(c2ccccc2)c2ccccc2)nc1)NO [Ricolinostat] + CS(=O)(=O)N1CCN(Cc2cc3nc(-c4cccc5[nH]ncc45)nc(N4CCOCC4)c3s2)CC1 [Pictilisib] (partner 1 µM)
The procedure, abridged: (§1)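 Relative viability divides the nuclei count in treated wells by that in vehicle wells. Lung cancer cell lines were seeded in 1536-well plates, dosed by pin tool the next day, and fixed and stained after 5 days in one step with final 0.05% Triton X-100, 1% formaldehyde and 1 ug/ml Hoechst. Dosing was a single drug or a fixed anchor-drug dose plus five library-drug doses (not always all listed) in √10 steps, and values are medians of duplicate plates imaged at 4×.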

Compound in assay [2]: C1=CC=C(C(=C1)C2=CC=C(C=C2)C3=CSC4=C3C(=C(C(=O)N4)C#N)O)O + CC(C)C[C@H](NC(=O)[C@H](Cc1ccccc1)NC(=O)c1cnccn1)B(O)O [Bortezomib] (partner 0.002 µM)
The procedure, abridged: as §1

Compound in the assay “TGX 221 + Pictilisib”: CC1=CN2C(=O)C=C(N=C2C(=C1)C(C)NC3=CC=CC=C3)N4CCOCC4 [TGX 221] + CS(=O)(=O)N1CCN(Cc2cc3nc(-c4cccc5[nH]ncc45)nc(N4CCOCC4)c3s2)CC1 [Pictilisib] (partner 1 µM)
The procedure, abridged:
as §1

Compound in assay [3]: C1=CC=C(C(=C1)C2=CC=C(C=C2)C3=CSC4=C3C(=C(C(=O)N4)C#N)O)O + Nc1nc2[nH]cc(CCc3ccc(C(=O)N[C@@H](CCC(=O)O)C(=O)O)cc3)c2c(=O)[nH]1 [Pemetrexed] (partner 0.2 µM)
The procedure, abridged: as §1

We go through 1 cell line from the supplement of paper PMC10307832.

Regarding NCI-H1792, the relative viability in assay [1] (first compound 0.08 µM) came to 0.248; in assay [1] (first compound 0.253 µM), 0.281; in assay [1] (first compound 0.8 µM), 0.243; in assay [1] (first compound 2.53 µM) it was 0.169; in assay [2] (first compound 0.253 µM), 0.866; in assay [2] (first compound 0.8 µM) it was 1.1. Further, the relative viability stood at 1.03 in assay [2] (first compound 2.53 µM); 0.425 in assay [2] (first compound 8 µM); 0.29 in the assay with TGX 221 + Pictilisib (first compound 0.08 µM); 0.281 in the assay with TGX 221 + Pictilisib (first compound 0.253 µM); 0.294 with TGX 221 + Pictilisib (first compound 0.8 µM); 0.246 with TGX 221 + Pictilisib (first compound 2.53 µM). Moreover, the relative viability was determined as 0.228 with TGX 221 + Pictilisib (first compound 8 µM); 0.835 in assay [3] (first compound 0.253 µM); 0.714 in assay [3] (first compound 0.8 µM); 0.649 in assay [3] (first compound 2.53 µM); 0.477 in assay [3] (first compound 8 µM).
